Test results published in ChEMBL document CHEMBL4828721, “Substituted dienes prepared from betulinic acid - Synthesis, cytotoxicity, mechanism of action, and pharmacological parameters” (Eur J Med Chem, 2021).

system: CCRF-CEM; assay: Cytotoxicity against human CCRF-CEM cells assessed as reduction in cell viability measured after 72 hrs by MTS assay; format: functional, cell-based; conditions: not given

Structure (SMILES)	IC50 [µM]
C=C(/C=C/c1cccc(F)c1)[C@@H]1CC[C@]2(C(=O)O)CC[C@]3(C)[C@H](CC[C@@H]4[C@@]5(C)CC[C@H](O)C(C)(C)[C@@H]5CC[C@]43C)[C@@H]12	11.7
C=C(/C=C/c1ccc(C(F)(F)F)cc1)[C@@H]1CC[C@]2(C(=O)O)CC[C@]3(C)[C@H](CC[C@@H]4[C@@]5(C)CC[C@H](O)C(C)(C)[C@@H]5CC[C@]43C)[C@@H]12	21.5
C=C(/C=C/c1cccc(C(F)(F)F)c1)[C@@H]1CC[C@]2(C(=O)O)CC[C@]3(C)[C@H](CC[C@@H]4[C@@]5(C)CC[C@H](O)C(C)(C)[C@@H]5CC[C@]43C)[C@@H]12	8
C=CC(=C)[C@@H]1CC[C@]2(C(=O)O)CC[C@]3(C)[C@H](CC[C@@H]4[C@@]5(C)CC[C@H](O)C(C)(C)[C@@H]5CC[C@]43C)[C@@H]12	11.1
C=C(/C=C/c1ccccc1C(F)(F)F)[C@@H]1CC[C@]2(C(=O)O)CC[C@]3(C)[C@H](CC[C@@H]4[C@@]5(C)CC[C@H](O)C(C)(C)[C@@H]5CC[C@]43C)[C@@H]12	21.8

system: CEM-DNR; assay: Cytotoxicity against daunorubicin resistant human CEM-DNR cells assessed as reduction in cell viability measured after 72 hrs by MTS assay; format: functional, cell-based; conditions: not given

Structure (SMILES)	IC50 [µM]
C=C(/C=C/c1cccc(F)c1)[C@@H]1CC[C@]2(C(=O)O)CC[C@]3(C)[C@H](CC[C@@H]4[C@@]5(C)CC[C@H](O)C(C)(C)[C@@H]5CC[C@]43C)[C@@H]12	23.1
C=C(/C=C/c1ccc(C(F)(F)F)cc1)[C@@H]1CC[C@]2(C(=O)O)CC[C@]3(C)[C@H](CC[C@@H]4[C@@]5(C)CC[C@H](O)C(C)(C)[C@@H]5CC[C@]43C)[C@@H]12	40.9
C=C(/C=C/c1cccc(C(F)(F)F)c1)[C@@H]1CC[C@]2(C(=O)O)CC[C@]3(C)[C@H](CC[C@@H]4[C@@]5(C)CC[C@H](O)C(C)(C)[C@@H]5CC[C@]43C)[C@@H]12	28.1
C=CC(=C)[C@@H]1CC[C@]2(C(=O)O)CC[C@]3(C)[C@H](CC[C@@H]4[C@@]5(C)CC[C@H](O)C(C)(C)[C@@H]5CC[C@]43C)[C@@H]12	25.1
C=C(/C=C/c1ccccc1C(F)(F)F)[C@@H]1CC[C@]2(C(=O)O)CC[C@]3(C)[C@H](CC[C@@H]4[C@@]5(C)CC[C@H](O)C(C)(C)[C@@H]5CC[C@]43C)[C@@H]12	> 50

system: HCT-116; assay: Cytotoxicity against human HCT-116 cells assessed as reduction in cell viability measured after 72 hrs by MTS assay; format: functional, cell-based; conditions: HCT-116, 72 h

Structure (SMILES)	IC50 [µM]
C=C(/C=C/c1cccc(F)c1)[C@@H]1CC[C@]2(C(=O)O)CC[C@]3(C)[C@H](CC[C@@H]4[C@@]5(C)CC[C@H](O)C(C)(C)[C@@H]5CC[C@]43C)[C@@H]12	23
C=C(/C=C/c1ccc(C(F)(F)F)cc1)[C@@H]1CC[C@]2(C(=O)O)CC[C@]3(C)[C@H](CC[C@@H]4[C@@]5(C)CC[C@H](O)C(C)(C)[C@@H]5CC[C@]43C)[C@@H]12	40.9
C=C(/C=C/c1cccc(C(F)(F)F)c1)[C@@H]1CC[C@]2(C(=O)O)CC[C@]3(C)[C@H](CC[C@@H]4[C@@]5(C)CC[C@H](O)C(C)(C)[C@@H]5CC[C@]43C)[C@@H]12	23.1
C=CC(=C)[C@@H]1CC[C@]2(C(=O)O)CC[C@]3(C)[C@H](CC[C@@H]4[C@@]5(C)CC[C@H](O)C(C)(C)[C@@H]5CC[C@]43C)[C@@H]12	24.1
C=C(/C=C/c1ccccc1C(F)(F)F)[C@@H]1CC[C@]2(C(=O)O)CC[C@]3(C)[C@H](CC[C@@H]4[C@@]5(C)CC[C@H](O)C(C)(C)[C@@H]5CC[C@]43C)[C@@H]12	33

system: not listed separately; assay: Cytotoxicity against human HCT116 p53-null cells assessed as reduction in cell viability measured after 72 hrs by MTS assay; format: functional, cell-based; conditions: not given

Structure (SMILES)	IC50 [µM]
C=C(/C=C/c1cccc(F)c1)[C@@H]1CC[C@]2(C(=O)O)CC[C@]3(C)[C@H](CC[C@@H]4[C@@]5(C)CC[C@H](O)C(C)(C)[C@@H]5CC[C@]43C)[C@@H]12	21
C=C(/C=C/c1ccc(C(F)(F)F)cc1)[C@@H]1CC[C@]2(C(=O)O)CC[C@]3(C)[C@H](CC[C@@H]4[C@@]5(C)CC[C@H](O)C(C)(C)[C@@H]5CC[C@]43C)[C@@H]12	31.9
C=C(/C=C/c1cccc(C(F)(F)F)c1)[C@@H]1CC[C@]2(C(=O)O)CC[C@]3(C)[C@H](CC[C@@H]4[C@@]5(C)CC[C@H](O)C(C)(C)[C@@H]5CC[C@]43C)[C@@H]12	24.8
C=CC(=C)[C@@H]1CC[C@]2(C(=O)O)CC[C@]3(C)[C@H](CC[C@@H]4[C@@]5(C)CC[C@H](O)C(C)(C)[C@@H]5CC[C@]43C)[C@@H]12	24.3
C=C(/C=C/c1ccccc1C(F)(F)F)[C@@H]1CC[C@]2(C(=O)O)CC[C@]3(C)[C@H](CC[C@@H]4[C@@]5(C)CC[C@H](O)C(C)(C)[C@@H]5CC[C@]43C)[C@@H]12	36.1

system: K562; assay: Cytotoxicity against human K562 cells assessed as reduction in cell viability measured after 72 hrs by MTS assay; format: functional, cell-based; conditions: K562, 72 h

Structure (SMILES)	IC50 [µM]
C=C(/C=C/c1cccc(F)c1)[C@@H]1CC[C@]2(C(=O)O)CC[C@]3(C)[C@H](CC[C@@H]4[C@@]5(C)CC[C@H](O)C(C)(C)[C@@H]5CC[C@]43C)[C@@H]12	21.6
C=C(/C=C/c1ccc(C(F)(F)F)cc1)[C@@H]1CC[C@]2(C(=O)O)CC[C@]3(C)[C@H](CC[C@@H]4[C@@]5(C)CC[C@H](O)C(C)(C)[C@@H]5CC[C@]43C)[C@@H]12	40.5
C=C(/C=C/c1cccc(C(F)(F)F)c1)[C@@H]1CC[C@]2(C(=O)O)CC[C@]3(C)[C@H](CC[C@@H]4[C@@]5(C)CC[C@H](O)C(C)(C)[C@@H]5CC[C@]43C)[C@@H]12	26.5
C=CC(=C)[C@@H]1CC[C@]2(C(=O)O)CC[C@]3(C)[C@H](CC[C@@H]4[C@@]5(C)CC[C@H](O)C(C)(C)[C@@H]5CC[C@]43C)[C@@H]12	15.7
C=C(/C=C/c1ccccc1C(F)(F)F)[C@@H]1CC[C@]2(C(=O)O)CC[C@]3(C)[C@H](CC[C@@H]4[C@@]5(C)CC[C@H](O)C(C)(C)[C@@H]5CC[C@]43C)[C@@H]12	48.7

system: not listed separately; assay: Cytotoxicity against paclitaxel resistant human K562-Tax cells assessed as reduction in cell viability measured after 72 hrs by MTS assay; format: functional, cell-based; conditions: not given

Structure (SMILES)	IC50 [µM]
C=C(/C=C/c1cccc(F)c1)[C@@H]1CC[C@]2(C(=O)O)CC[C@]3(C)[C@H](CC[C@@H]4[C@@]5(C)CC[C@H](O)C(C)(C)[C@@H]5CC[C@]43C)[C@@H]12	21.9
C=C(/C=C/c1ccc(C(F)(F)F)cc1)[C@@H]1CC[C@]2(C(=O)O)CC[C@]3(C)[C@H](CC[C@@H]4[C@@]5(C)CC[C@H](O)C(C)(C)[C@@H]5CC[C@]43C)[C@@H]12	45.6
C=C(/C=C/c1cccc(C(F)(F)F)c1)[C@@H]1CC[C@]2(C(=O)O)CC[C@]3(C)[C@H](CC[C@@H]4[C@@]5(C)CC[C@H](O)C(C)(C)[C@@H]5CC[C@]43C)[C@@H]12	25.1
C=CC(=C)[C@@H]1CC[C@]2(C(=O)O)CC[C@]3(C)[C@H](CC[C@@H]4[C@@]5(C)CC[C@H](O)C(C)(C)[C@@H]5CC[C@]43C)[C@@H]12	26.2
C=C(/C=C/c1ccccc1C(F)(F)F)[C@@H]1CC[C@]2(C(=O)O)CC[C@]3(C)[C@H](CC[C@@H]4[C@@]5(C)CC[C@H](O)C(C)(C)[C@@H]5CC[C@]43C)[C@@H]12	> 50

system: A549; assay: Cytotoxicity against human A549 cells assessed as reduction in cell viability measured after 72 hrs by MTS assay; format: functional, cell-based; conditions: A549, 72 h

Structure (SMILES)	IC50 [µM]
C=C(/C=C/c1cccc(F)c1)[C@@H]1CC[C@]2(C(=O)O)CC[C@]3(C)[C@H](CC[C@@H]4[C@@]5(C)CC[C@H](O)C(C)(C)[C@@H]5CC[C@]43C)[C@@H]12	28.7
C=C(/C=C/c1ccc(C(F)(F)F)cc1)[C@@H]1CC[C@]2(C(=O)O)CC[C@]3(C)[C@H](CC[C@@H]4[C@@]5(C)CC[C@H](O)C(C)(C)[C@@H]5CC[C@]43C)[C@@H]12	41.4
C=C(/C=C/c1cccc(C(F)(F)F)c1)[C@@H]1CC[C@]2(C(=O)O)CC[C@]3(C)[C@H](CC[C@@H]4[C@@]5(C)CC[C@H](O)C(C)(C)[C@@H]5CC[C@]43C)[C@@H]12	35.1
C=CC(=C)[C@@H]1CC[C@]2(C(=O)O)CC[C@]3(C)[C@H](CC[C@@H]4[C@@]5(C)CC[C@H](O)C(C)(C)[C@@H]5CC[C@]43C)[C@@H]12	23.9
C=C(/C=C/c1ccccc1C(F)(F)F)[C@@H]1CC[C@]2(C(=O)O)CC[C@]3(C)[C@H](CC[C@@H]4[C@@]5(C)CC[C@H](O)C(C)(C)[C@@H]5CC[C@]43C)[C@@H]12	37

system: U2OS; assay: Cytotoxicity against human U2OS cells assessed as reduction in cell viability measured after 72 hrs by MTS assay; format: functional, cell-based; conditions: not given

Structure (SMILES)	IC50 [µM]
C=C(/C=C/c1cccc(F)c1)[C@@H]1CC[C@]2(C(=O)O)CC[C@]3(C)[C@H](CC[C@@H]4[C@@]5(C)CC[C@H](O)C(C)(C)[C@@H]5CC[C@]43C)[C@@H]12	27.7
C=C(/C=C/c1ccc(C(F)(F)F)cc1)[C@@H]1CC[C@]2(C(=O)O)CC[C@]3(C)[C@H](CC[C@@H]4[C@@]5(C)CC[C@H](O)C(C)(C)[C@@H]5CC[C@]43C)[C@@H]12	28.2
C=C(/C=C/c1cccc(C(F)(F)F)c1)[C@@H]1CC[C@]2(C(=O)O)CC[C@]3(C)[C@H](CC[C@@H]4[C@@]5(C)CC[C@H](O)C(C)(C)[C@@H]5CC[C@]43C)[C@@H]12	24.6
C=CC(=C)[C@@H]1CC[C@]2(C(=O)O)CC[C@]3(C)[C@H](CC[C@@H]4[C@@]5(C)CC[C@H](O)C(C)(C)[C@@H]5CC[C@]43C)[C@@H]12	24.1
C=C(/C=C/c1ccccc1C(F)(F)F)[C@@H]1CC[C@]2(C(=O)O)CC[C@]3(C)[C@H](CC[C@@H]4[C@@]5(C)CC[C@H](O)C(C)(C)[C@@H]5CC[C@]43C)[C@@H]12	29.6

system: BJ; assay: Cytotoxicity against human BJ cells assessed as reduction in cell viability measured after 72 hrs by MTS assay; format: cell-based; conditions: not given

Structure (SMILES)	IC50 [µM]
C=C(/C=C/c1cccc(F)c1)[C@@H]1CC[C@]2(C(=O)O)CC[C@]3(C)[C@H](CC[C@@H]4[C@@]5(C)CC[C@H](O)C(C)(C)[C@@H]5CC[C@]43C)[C@@H]12	41.5
C=C(/C=C/c1ccc(C(F)(F)F)cc1)[C@@H]1CC[C@]2(C(=O)O)CC[C@]3(C)[C@H](CC[C@@H]4[C@@]5(C)CC[C@H](O)C(C)(C)[C@@H]5CC[C@]43C)[C@@H]12	49.5
C=C(/C=C/c1cccc(C(F)(F)F)c1)[C@@H]1CC[C@]2(C(=O)O)CC[C@]3(C)[C@H](CC[C@@H]4[C@@]5(C)CC[C@H](O)C(C)(C)[C@@H]5CC[C@]43C)[C@@H]12	> 50
C=CC(=C)[C@@H]1CC[C@]2(C(=O)O)CC[C@]3(C)[C@H](CC[C@@H]4[C@@]5(C)CC[C@H](O)C(C)(C)[C@@H]5CC[C@]43C)[C@@H]12	44.6
C=C(/C=C/c1ccccc1C(F)(F)F)[C@@H]1CC[C@]2(C(=O)O)CC[C@]3(C)[C@H](CC[C@@H]4[C@@]5(C)CC[C@H](O)C(C)(C)[C@@H]5CC[C@]43C)[C@@H]12	> 50

system: MRC5; assay: Cytotoxicity against human MRC5 cells assessed as reduction in cell viability measured after 72 hrs by MTS assay; format: cell-based; conditions: MRC5, 72 h

Structure (SMILES)	IC50 [µM]
C=C(/C=C/c1cccc(F)c1)[C@@H]1CC[C@]2(C(=O)O)CC[C@]3(C)[C@H](CC[C@@H]4[C@@]5(C)CC[C@H](O)C(C)(C)[C@@H]5CC[C@]43C)[C@@H]12	32.1
C=C(/C=C/c1ccc(C(F)(F)F)cc1)[C@@H]1CC[C@]2(C(=O)O)CC[C@]3(C)[C@H](CC[C@@H]4[C@@]5(C)CC[C@H](O)C(C)(C)[C@@H]5CC[C@]43C)[C@@H]12	42.4
C=C(/C=C/c1cccc(C(F)(F)F)c1)[C@@H]1CC[C@]2(C(=O)O)CC[C@]3(C)[C@H](CC[C@@H]4[C@@]5(C)CC[C@H](O)C(C)(C)[C@@H]5CC[C@]43C)[C@@H]12	42.9
C=CC(=C)[C@@H]1CC[C@]2(C(=O)O)CC[C@]3(C)[C@H](CC[C@@H]4[C@@]5(C)CC[C@H](O)C(C)(C)[C@@H]5CC[C@]43C)[C@@H]12	24.3
C=C(/C=C/c1ccccc1C(F)(F)F)[C@@H]1CC[C@]2(C(=O)O)CC[C@]3(C)[C@H](CC[C@@H]4[C@@]5(C)CC[C@H](O)C(C)(C)[C@@H]5CC[C@]43C)[C@@H]12	> 50
